The values below are quoted from earlier work in patent US20200281206A1, “SEXUAL ATTRACTION PHEROMONE OF TRIBOLIUM CASTANEUM AND INSECT CONTROL DEVICE” (YPF TECNOLOGÍA S.A., priority 2019, published 2020).

SMILES strings stand for the structures.

The subject of the series is Tribolium castaneum. Particulars: prior-art finding.

For `CCC(C)CCCC(C)CCC=O` (stereo not shown) [4,8-dimethyldecanal], the “sex of insects attracted” value was “attracts both male and female insects”.
